Source: patent publication US20250042853A1, “BICYCLIC COMPOUND AND APPLICATION THEREOF” (BETTA PHARMACEUTICALS CO., LTD, priority 2021, published 2025)

System: VEGFA
Experiment: VEGFA ELISA assay (IC50)
Type: cell-based
Settings: 786-O cells, 24 h, VEGFA in culture supernatant by ELISA; class symbols
Experimental: 786-O cells in the logarithmic growth phase were inoculated into a 96-well plate at a cell concentration of 65,000 cells per ml of culture liquid, 180 μL per well. The compounds were diluted to the corresponding concentrations, and 20 μL of compound solutions of various concentrations were added to the corresponding cell wells, so that the final concentrations of the compounds were 1.5 nM, 4.6 nM, 13.7 nM, 41.2 nM, 123.5 nM, 370.4 nM, 1111.1 nM, 3333.3 nM, and 10000 nM, respectively. After culturing for 24 h, the cell culture supernatant was collected and the VEGFA concentration was determined using an ELISA kit (purchased from Abeam). Finally, the reaction was terminated and the absorbance value of each well was measured at a wavelength of 450 nm using an ELISA reader. The IC50 values were calculated by GraphPadPrism. CellTiter-Glo reagent was used to measure cell viability.

SMILES	IC50 [nM]
CS(=O)(=NC#N)c1cn(-c2ccc(F)c(C#N)c2)c2c1[C@H](O)C(F)(F)CC2 (stereo partly drawn) [Example 18, N—(((S)-1-(3-cyano-4-fluorophenyl)-5,5-difluoro-4-hydroxyl-4,5,6,7-tetrahydro-1H-indol-3-yl)(methyl)(oxo)-16-sulfino)cyanamide]	≤ 500

Same assay, conditions: Homo sapiens, 786-0; 786-O cells, 24 h, VEGFA in culture supernatant by ELISA

SMILES	IC50 [nM]
O=S(=O)(c1cn(-c2ccc(F)c(C(F)F)c2)c2c1[C@H](O)[C@@H](F)CC2)C(F)F [Example 64, (4S,5S)-1-(3-(difluoromethyl)-4-fluorophenyl)-3-((difluoromethyl)sulfonyl)-5-fluoro-4,5,6,7-tetrahydro-1H-indol-4-ol]	33
N#CC(F)(F)c1cn(-c2ccc(F)c(C(F)F)c2)c2c1[C@H](O)C(F)(F)CC2 [Example 49, (S)-2-(1-(3-(difluoromethyl)-4-fluorophenyl)-5,5-difluoro-4-hydroxyl-4,5,6,7-tetrahydro-1H-indol-3-yl)-2,2-difluoroacetonitrile]	99
CS(=O)(=O)c1cn(-c2ccc(C#N)c(C(F)F)c2)c2c1[C@H](O)C(F)(F)CC2 [Example 29, (S)-4-(5,5-difluoro-4-hydroxyl-3-(methylsulfonyl)-4,5,6,7-tetrahydro-1H-indol-1-yl)-2-(difluoromethyl)benzonitrile]	174
O=S(=O)(c1cn(-c2ccc(F)c(C(F)(F)F)c2)c2c1[C@H](O)C(F)(F)CC2)C(F)F [Example 21, (S)-3-((difluoromethyl)sulfonyl)-5,5-difluoro-1-(4-fluoro-3-(trifluoromethyl)phenyl)-4,5,6,7-tetrahydro-1H-indol-4-ol]	12
O[C@H]1c2c(-c3nccs3)cn(-c3ccc(F)c(C(F)F)c3)c2CCC1(F)F [Example 51, (S)-1-(3-(difluoromethyl)-4-fluorophenyl)-5,5-difluoro-3-(thiazol-2-yl)-4,5,6,7-tetrahydro-1H-indol-4-ol]	1250
CS(=O)(=O)c1cn(-c2ccc(F)c(C(F)F)c2)c2c1[C@H](O)C(F)(F)CC2 [Example 5, (S)-1-(3-(difluoromethyl)-4-fluorophenyl)-5,5-difluoro-3-(methylsulfonyl)-4,5,6,7-tetrahydro-1H-indol-4-ol]	72
N#Cc1cc(-n2cc(S(=O)(=O)C(F)F)c3c2CCC(F)(F)[C@H]3O)ccc1F [Example 4, (S)-5-(3-((difluoromethyl)sulfonyl)-5,5-difluoro-4-hydroxyl-4,5,6,7-tetrahydro-1H-indol-1-yl)-2-fluorobenzonitrile]	98
O=S(=O)(c1cn(-c2ccc(F)c(C(F)F)c2)c2c1[C@@H](O)C(F)(F)CC2)C(F)F [Example 26, (R)-1-(3-(difluoromethyl)-4-fluorophenyl)-3-((difluoromethyl)sulfonyl)-5,5-difluoro-4,5,6,7-tetrahydro-1H-indol-4-ol]	628
N#Cc1cc(-n2cc(S(=O)(=O)C(F)F)c3c2CCC(F)(F)[C@H]3O)ccc1Cl [Example 28, (S)-2-chloro-5-(3-((difluoromethyl)sulfonyl)-5,5-difluoro-4-hydroxyl-4,5,6,7-tetrahydro-1H-indol-1-yl)benzonitrile]	118

Next, values leading:

IC50 [nM]	SMILES
21	N#Cc1ccc(-n2cc(S(=O)(=O)C(F)(F)F)c3c2CCC(F)(F)[C@H]3O)cc1C(F)(F)F [Example 31, (S)-4-(5,5-difluoro-4-hydroxyl-3-((trifluoromethyl)sulfonyl)-4,5,6,7-tetrahydro-1H-indol-1-yl)-2-(trifluoromethyl)benzonitrile]
45	O=S(=O)(CF)c1cn(-c2ccc(F)c(C(F)(F)F)c2)c2c1[C@H](O)C(F)(F)CC2 [Example 30, (S)-5,5-difluoro-1-(4-fluoro-3-(trifluoromethyl)phenyl)-3-((fluoromethyl)sulfonyl)-4,5,6,7-tetrahydro-1H-indol-4-ol]
8.3	OC1c2c(C(F)(F)F)cn(-c3ccc(F)c(CF)c3)c2CCC1(F)F (stereo not drawn) [Example 2, 5,5-difluoro-1-(4-fluoro-3-(fluoromethyl)phenyl)-3-(trifluoromethyl)-4,5,6,7-tetrahydro-1H-indol-4-ol]
63	O=S(=O)(c1cn(-c2ccc(F)c(Cl)c2)c2c1C(O)C(F)(F)CC2)C(F)F (stereo not drawn) [Example 25, 1-(3-chloro-4-fluorophenyl)-3-((difluoromethyl)sulfonyl)-5,5-difluoro-4,5,6,7-tetrahydro-1H-indol-4-ol]

Same assay, conditions: Homo sapiens, 786-0; 786-O cells, 24 h, VEGFA in culture supernatant by ELISA; class symbols

SMILES	IC50 [nM]
O=S(=O)(CF)c1cn(-c2ccc(F)c(C(F)F)c2)c2c1[C@@H](O)C(F)(F)CC2 [Example 61, (R)-1-(3-(difluoromethyl)-4-fluorophenyl)-5,5-difluoro-3-((fluoromethyl)sulfonyl)-4,5,6,7-tetrahydro-1H-indol-4-ol]	≤ 500
N#Cc1ccc(-n2cc(S(=O)(=O)CF)c3c2CCC(F)(F)[C@H]3O)cc1C#N [Example 45, (S)-4-(5,5-difluoro-3-((fluoromethyl)sulfonyl)-4-hydroxyl-4,5,6,7-tetrahydro-1H-indol-1-yl)phthalonitrile]	≤ 500
N#Cc1cc(-n2cc(S(=O)(=O)C(F)(F)F)c3c2CCC(F)(F)[C@H]3O)ccc1F [Example 10, (S)-5-(5,5-difluoro-4-hydroxyl-3-((trifluoromethyl)sulfonyl)-4,5,6,7-tetrahydro-1H-indol-1-yl)-2-fluorobenzonitrile]	≤ 500
N#Cc1ccc(-n2cc(C(F)(F)C(F)(F)F)c3c2CCC(F)(F)C3O)cc1C(F)F (stereo not drawn) [Example 41, 4-(5,5-difluoro-4-hydroxyl-3-(perfluoroethyl)-4,5,6,7-tetrahydro-1H-indol-1-yl)-2-(difluoromethyl)benzonitrile]	≤ 500
N#Cc1ccc(-n2cc(S(=O)(=O)C(F)F)c3c2CCC(F)(F)[C@H]3O)cc1C(F)(F)F [Example 34, (S)-4-(3-((difluoromethyl)sulfonyl)-5,5-difluoro-4-hydroxyl-4,5,6,7-tetrahydro-1H-indol-1-yl)-2-(trifluoromethyl)benzonitrile]	≤ 500

Results, then the molecule that gave them:

IC50 [nM]	SMILES
≤ 500	N#Cc1ccc(-n2cc(S(=O)(=O)C(F)F)c3c2CCC(F)(F)[C@H]3O)cc1C(F)F [Example 43, (S)-2-(difluoromethyl)-4-(3-((difluoromethyl)sulfonyl)-5,5-difluoro-4-hydroxyl-4,5,6,7-tetrahydro-1H-indol-1-yl)benzonitrile]
≤ 500	O=S(=O)(CF)c1cn(-c2ccc(F)c(Cl)c2)c2c1[C@H](O)C(F)(F)CC2 [Example 37, (S)-1-(3-chloro-4-fluorophenyl)-5,5-difluoro-3-((fluoromethyl)sulfonyl)-4,5,6,7-tetrahydro-1H-indol-4-ol]
500 to 1500	O[C@H]1c2c(C(F)(F)F)cn(-c3ccc(F)cc3F)c2CCC1(F)F [Example 72, (S)-1-(2,4-difluorophenyl)-5,5-difluoro-3-(trifluoromethyl)-4,5,6,7-tetrahydro-1H-indol-4-ol]
≤ 500	N#Cc1ccc(-n2cc(C(F)(F)C(F)(F)F)c3c2CCC(F)(F)[C@H]3O)cc1C#N [Example 46, (S)-4-(5,5-difluoro-4-hydroxyl-3-(perfluoroethyl)-4,5,6,7-tetrahydro-1H-indol-1-yl)phthalonitrile]
≤ 500	CC(C#N)S(=O)(=O)c1cn(-c2ccc(F)c(C(F)F)c2)c2c1[C@H](O)C(F)(F)CC2 (stereo partly drawn) [Example 57, 2-(((S)-1-(3-(difluoromethyl)-4-fluorophenyl)-5,5-difluoro-4-hydroxyl-4,5,6,7-tetrahydro-1H-indol-3-yl)sulfonyl) propanenitrile]
